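Cells were grown in 96-well plates and exposed to each compound for 48 hours at five concentrations; endpoints were interpolated linearly between bracketing concentrations, or set to the highest concentration if not reached. TGI: total growth inhibition.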
Experiments:
Assay in all cases: growth of human tumour cells (NCI), 48 h
[1] = tested on: NCI/ADR-RES ovarian
[2] = tested on: MDA-MB-435
[3] = tested on: SNB-19 CNS
[4] = tested on: MOLT-4 leukemia
[5] = tested on: UACC-257 melanoma
[6] = tested on: SNB-75 CNS
[7] = tested on: U251 CNS
[8] = tested on: SK-MEL-28 melanoma
[9] = tested on: A498 renal
[10] = tested on: IGROV1 ovarian
[11] = tested on: HOP-92 NSCLC
[12] = tested on: MDA-N
[13] = tested on: HL-60(TB) leukemia
[14] = tested on: OVCAR-8 ovarian
[15] = tested on: SK-OV-3 ovarian
[16] = tested on: HS 578T breast
[17] = tested on: TK-10 renal
[18] = tested on: HCT-116 colon
[19] = tested on: UO-31 renal
[20] = tested on: A549 NSCLC
[21] = tested on: LOX IMVI melanoma
[22] = tested on: DU-145 prostate
[23] = tested on: M14 melanoma
[24] = tested on: SK-MEL-2 melanoma
[25] = tested on: ACHN renal
[26] = tested on: BT-549 breast
[27] = tested on: CAKI-1 renal
[28] = tested on: UACC-62 melanoma
[29] = tested on: SR leukemia
[30] = tested on: NCI-H522 lung
[31] = tested on: PC-3 prostate
[32] = tested on: OVCAR-5 ovarian
[33] = tested on: 786-0 renal
[34] = tested on: SF-295 CNS
[35] = tested on: MALME-3M melanoma
[36] = tested on: MCF7 breast
[37] = tested on: CCRF-CEM leukemia
[38] = tested on: HOP-62 NSCLC
[39] = tested on: KM12 colon
[40] = tested on: HT29 colon
[41] = tested on: EKVX NSCLC
[42] = tested on: MDA-MB-231 breast
[43] = tested on: SW-620 colon
[44] = tested on: SK-MEL-5 melanoma
[45] = tested on: SF-268 CNS
[46] = tested on: RPMI-8226 leukemia
[47] = tested on: K-562 leukemia
[48] = tested on: SN12C renal
[49] = tested on: NCI-H23 lung
[50] = tested on: NCI-H226 lung
[51] = tested on: COLO 205 colon
[52] = tested on: T-47D breast
[53] = tested on: RXF 393 renal
[54] = tested on: OVCAR-4 ovarian
[55] = tested on: SF-539 CNS
[56] = tested on: HCT-15 colon
[57] = tested on: NCI-H460 lung
[58] = tested on: OVCAR-3 ovarian

For `CC(C)(C)C1=NC(=P(c2ccccc2)(c2ccccc2)c2ccccc2)C(=O)O1`, the TGI [1] was greater than 100 µM, the TGI [2] was greater than 100 µM and the TGI [3] was greater than 100 µM. It also gave a TGI [4] greater than 100 µM, a TGI [5] greater than 100 µM and a TGI [6] of 56.5 µM. It also gave a TGI [7] greater than 100 µM, a TGI [8] greater than 100 µM and a TGI [9] greater than 100 µM. For the same compound, the TGI [10] was greater than 100 µM, the TGI [11] was greater than 100 µM and the TGI [12] was greater than 100 µM. For the same compound, the TGI [13] was greater than 100 µM, the TGI [14] was greater than 100 µM and the TGI [15] was greater than 100 µM. For the same compound, the TGI [16] was greater than 100 µM, the TGI [17] was greater than 100 µM and the TGI [18] was greater than 100 µM. It also gave a TGI [19] greater than 100 µM, a TGI [20] greater than 100 µM and a TGI [21] greater than 100 µM. For the same compound, the TGI [22] was greater than 100 µM, the TGI [23] was greater than 100 µM and the TGI [24] was greater than 100 µM. For the same compound, the TGI [25] was greater than 100 µM, the TGI [26] was greater than 100 µM and the TGI [27] was greater than 100 µM. It also gave a TGI [28] greater than 100 µM, a TGI [29] greater than 100 µM and a TGI [30] of 90.8 µM. The TGI [31] was greater than 100 µM, the TGI [32] was greater than 100 µM and the TGI [33] was greater than 100 µM. The TGI [34] was greater than 100 µM, the TGI [35] was greater than 100 µM and the TGI [36] was greater than 100 µM. For the same compound, the TGI [37] was greater than 100 µM, the TGI [38] was greater than 100 µM and the TGI [39] was greater than 100 µM. The TGI [40] was greater than 100 µM, the TGI [41] was greater than 100 µM and the TGI [42] was greater than 100 µM. It also gave a TGI [43] greater than 100 µM, a TGI [44] greater than 100 µM and a TGI [45] greater than 100 µM. It also gave a TGI [46] greater than 100 µM, a TGI [47] greater than 100 µM and a TGI [48] greater than 100 µM. The TGI [49] was greater than 100 µM, the TGI [50] was greater than 100 µM and the TGI [51] was greater than 100 µM. It also gave a TGI [52] greater than 100 µM and a TGI [53] greater than 100 µM.
Compound `O=C(CSc1nnc(-c2ccccn2)s1)N/N=C/c1ccc([N+](=O)[O-])cc1` has a TGI [1] greater than 100 µM, a TGI [2] greater than 100 µM and a TGI [54] greater than 100 µM. For the same compound, the TGI [3] was 92.5 µM, the TGI [4] was greater than 100 µM and the TGI [5] was greater than 100 µM. It also gave a TGI [6] of 10.3 µM, a TGI [7] of 41.2 µM and a TGI [8] greater than 100 µM. The TGI [9] was 75.3 µM, the TGI [10] was greater than 100 µM and the TGI [11] was 42.3 µM. It also gave a TGI [12] greater than 100 µM, a TGI [13] greater than 100 µM and a TGI [14] greater than 100 µM. The TGI [15] was greater than 100 µM, the TGI [16] was greater than 100 µM and the TGI [17] was 79 µM. It also gave a TGI [18] greater than 100 µM, a TGI [19] of 4.19 µM and a TGI [55] greater than 100 µM. It also gave a TGI [20] greater than 100 µM, a TGI [21] greater than 100 µM and a TGI [22] of 49.5 µM. The TGI [23] was greater than 100 µM, the TGI [24] was greater than 100 µM and the TGI [56] was greater than 100 µM. The TGI [25] was greater than 100 µM, the TGI [26] was greater than 100 µM and the TGI [27] was greater than 100 µM. For the same compound, the TGI [28] was greater than 100 µM, the TGI [29] was greater than 100 µM and the TGI [57] was greater than 100 µM. For the same compound, the TGI [30] was greater than 100 µM, the TGI [31] was greater than 100 µM and the TGI [32] was greater than 100 µM. For the same compound, the TGI [33] was greater than 100 µM, the TGI [34] was greater than 100 µM and the TGI [35] was greater than 100 µM. It also gave a TGI [36] greater than 100 µM, a TGI [37] greater than 100 µM and a TGI [58] greater than 100 µM. The TGI [38] was greater than 100 µM, the TGI [39] was greater than 100 µM and the TGI [40] was greater than 100 µM. It also gave a TGI [42] of 49.1 µM, a TGI [43] greater than 100 µM and a TGI [44] greater than 100 µM. For the same compound, the TGI [45] was 71.9 µM, the TGI [47] was greater than 100 µM and the TGI [48] was greater than 100 µM. It also gave a TGI [49] greater than 100 µM, a TGI [50] greater than 100 µM and a TGI [51] greater than 100 µM. For the same compound, the TGI [52] was greater than 100 µM and the TGI [53] was 37.3 µM.

— PubChem BioAssay (NCI)
